Experimental data published in ChEMBL document CHEMBL4834404, “Template-Hopping Approach Leads to Potent, Selective, and Highly Soluble Bromo and Extraterminal Domain (BET) Second Bromodomain (BD2) Inhibitors” (J Med Chem, 2021).
≈ marks a conversion by molar mass, not a printed value.

Key:
[1] = biological target: Bromodomain-containing protein 4 (Homo sapiens, UniProt O60885, Y97A); assay: Inhibition of 6His-Thr-BRD4 (1 to 477 residues) BD1 Y97A mutant (unknown origin) incubated for 30 mins by TR-FRET assay
[2] = biological target: Bromodomain-containing protein 4 (Homo sapiens, UniProt O60885, Y390A); assay: Inhibition of 6His-Thr-BRD4 (1 to 477 residues) BD2 domain Y390A mutant (unknown origin) incubated for 30 mins by TR-FRET assay
Homo sapiens = species: Homo sapiens; assay: Selectivity index, ratio of pIC50 of BRD4 BD1 (unknown origin) to pIC50 of BRD4 BD2 (unknown origin)
[3] = Solubility of compound by CLND assay; format: physicochemical
[4] = Permeability of compound; format: ADME; conditions: not told; read-out: permeability

| Structure (SMILES) | IC50 [1] [µM] | IC50 [2] [nM] | Ratio pIC50 (Homo sapiens) | solubility kinetic [3] [µg/mL] | Papp [4] [×10⁻⁶ cm/s] |
| --- | --- | --- | --- | --- | --- |
| Cn1cc(-c2cc(C(=O)N[C@H]3[C@@H]4COC[C@@H]43)cc(Cc3ccccc3)n2)nn1 | 5.01 | 50.1 | 100 | ≥ 145 | 24 |
| Cn1cc(-c2cc(C(=O)NCCCC3CCNCC3)cc(Cc3ccccc3)n2)nn1 | 10 | 25.1 | 400 | ≥ 134 | < 0.3 |
| Cc1cc(-c2ccccc2OCc2ccccc2)on1 | 10 | 3980 | 3 | 1 (≈ 3.77 µM) | – |
| CCNC(=O)c1ccc(OCc2ccccc2OC)c(-c2cn(C)nn2)c1 | 20 | 126 | 160 | ≥ 162 | 48 |
| CCNC(=O)c1ccc(OCc2cccnc2)c(-c2cn(C)nn2)c1 | > 50.1 | 1000 | > 50 | 103 (≈ 305 µM) | 18 |
| CCNC(=O)c1ccc(O[C@H](C)c2ccccc2)c(-c2cn(C)nn2)c1 | 39.8 | 1580 | 25 | 119 (≈ 340 µM) | 42 |
| CCNC(=O)c1cc(Cc2ccccc2OC)nc(-c2cn(C)nn2)c1 | 39.8 | 200 | 200 | 62 (≈ 176 µM) | 37 |
| CCNC(=O)c1ccc(OCc2ccncc2)c(-c2cn(C)nn2)c1 | 12.6 | 1000 | 15 | ≥ 115 | 30 |
| CCNC(=O)c1cc(Cc2cccc(F)c2)nc(-c2cn(C)nn2)c1 | 15.8 | 251 | 65 | 73 (≈ 215 µM) | 41 |
| CCNC(=O)c1cc(Cc2cccc(OC)c2)nc(-c2cn(C)nn2)c1 | > 50.1 | 631 | > 80 | ≥ 45 | 47 |
| CCNC(=O)c1ccc(OCc2ccccc2)c(-c2cn(C)nn2)c1 | 12.6 | 126 | 100 | 46 (≈ 137 µM) | 4.6 |
| CCNC(=O)c1ccc(OCC2CCOCC2)c(-c2cn(C)nn2)c1 | – | – | – | ≥ 208 | 11 |
| CCNC(=O)c1ccc(OCCc2ccccc2)c(-c2cn(C)nn2)c1 | > 50.1 | 2510 | > 20 | 95 (≈ 271 µM) | 49 |
| CCNC(=O)c1ccc(O[C@@H](C)c2ccccn2)c(-c2cn(C)nn2)c1 | 7.94 | 79.4 | 100 | ≥ 127 | 15 |
| Cc1nnc(-c2ccccc2OCc2ccccc2)o1 | > 50.1 | 12600 | > 4 | ≥ 252 | – |
| Cc1cn(-c2ccccc2OCc2ccccc2)nn1 | 31.6 | 15800 | 2 | 96 (≈ 362 µM) | – |
| Cn1cc(-c2cc(C(=O)NCC[C@@H]3CNCCO3)cc(Cc3ccccc3)n2)nn1 | 12.6 | 31.6 | 400 | ≥ 138 | 1.8 |
| C[C@H](Oc1ccc(C(=O)NC2CCOCC2)cc1-c1cn(C)nn1)c1ccccn1 | 15.8 | 126 | 100 | ≥ 194 | 5.9 |
| CCNC(=O)c1cc(Cc2ccccc2)nc(-c2cn(C)nn2)c1 | – | 100 | 170 | ≥ 157 | 32.5 |
| CNC(=O)c1ccc(O[C@@H](C)c2ccccn2)c(-c2cn(C)nn2)c1 | 10 | 126 | 80 | ≥ 138 | 7 |

| Structure (SMILES) | IC50 [1] [µM] | IC50 [2] [nM] | Ratio pIC50 (Homo sapiens) | solubility kinetic [3] [µg/mL] | Papp [4] [×10⁻⁶ cm/s] |
| --- | --- | --- | --- | --- | --- |
| CCNC(=O)c1ccc(OCc2ccc(OC)cc2)c(-c2cn(C)nn2)c1 | 20 | 316 | 65 | ≥ 142 | 39 |
| CCNC(=O)c1cc(Cc2ccccc2F)nc(-c2cn(C)nn2)c1 | 20 | 200 | 100 | 66 (≈ 194 µM) | 30 |
| CCNC(=O)c1cc(Cc2ccc(F)cc2)nc(-c2cn(C)nn2)c1 | 20 | 251 | 80 | 75 (≈ 221 µM) | 33 |
| C[C@H](Oc1ccc(C(N)=O)cc1-c1cn(C)nn1)c1ccccn1 | 6.31 | 251 | 25 | 131 (≈ 405 µM) | 4.7 |
| C[C@H](Oc1ccc(C(=O)NCC[C@@H]2CNCCO2)cc1-c1cn(C)nn1)c1ccccn1 | 6.31 | 25.1 | 250 | ≥ 177 | < 0.3 |
| C[C@H](Oc1ccc(C(=O)N[C@H]2CC[C@H](O)CC2)cc1-c1cn(C)nn1)c1ccccn1 | 7.94 | 398 | 20 | ≥ 188 | 1.3 |
| C[C@H](Oc1ccc(C(=O)N[C@H]2[C@@H]3COC[C@@H]32)cc1-c1cn(C)nn1)c1ccccn1 | 1.58 | 25.1 | 65 | ≥ 169 | 4.2 |
| Cc1nc(-c2ccccc2OCc2ccccc2)n[nH]1 | > 50.1 | 7940 | > 6 | ≥ 70 | – |
| CCNC(=O)c1ccc(OCc2ccccn2)c(-c2cn(C)nn2)c1 | 39.8 | 316 | 125 | 114 (≈ 338 µM) | 14 |
| Cn1cc(-c2cc(C(=O)NCC[C@H]3CNCCO3)cc(Cc3ccccc3)n2)nn1 | 15.8 | 63.1 | 250 | ≥ 189 | 4.8 |
| Cn1cc(-c2cc(C(=O)NCC[C@]3(F)CCCNC3)cc(Cc3ccccc3)n2)nn1 | 6.31 | 25.1 | 250 | ≥ 181 | 1.9 |
| CCNC(=O)c1ccc(O[C@@H](C)c2ccccc2)c(-c2cn(C)nn2)c1 | 3.98 | 39.8 | 100 | 105 (≈ 300 µM) | 42 |
| Cn1cc(-c2cc(C(=O)NC3CC3)cc(Cc3ccccc3)n2)nn1 | – | 126 | 125 | ≥ 76 | 36 |
| Cn1cc(-c2ccccc2OCc2ccccc2)nn1 | 20 | 3980 | 5 | 87 (≈ 328 µM) | – |
| C[C@H](Oc1ccc(C(=O)NCCC[C@@]2(F)CCCNC2)cc1-c1cn(C)nn1)c1ccccn1 | 3.98 | 10 | 400 | ≥ 193 | 0.53 |
| CC(=O)Nc1ccccc1OCc1ccccc1 | – | – | – | ≥ 113 | – |
| CCNC(=O)c1ccc(OCc2cccc(OC)c2)c(-c2cn(C)nn2)c1 | 20 | 251 | 80 | ≥ 139 | 42 |
| CCNC(=O)c1ccc(OCc2ncccn2)c(-c2cn(C)nn2)c1 | > 50.1 | 1580 | > 30 | ≥ 103 | 3.7 |
| CNC(=O)c1cc(C(=O)NC2CC2)cn(Cc2ccccc2)c1=O [GSK620] | – | – | – | ≥ 154 | 20 |
